Reference: patent publication US10822348B2, “Inhibitors of Bruton's tyrosine kinase and methods of their use” (JANSSEN PHARMACEUTICA NV, priority 2015, dated 2020)
Blank lines part the entries; values can stand above or below the compound they belong to.

Target: unphosphorylated-BTK kinase domain (UP-BTK), GST-tagged human BTK (389-659aa) (Homo sapiens (Human), UniProt Q06187)
Experiment: BTK kinase Lanthascreen binding assay
Method: BTK Kinase Lanthascreen Binding Assay:
A BTK kinase lanthascreen binding assay monitors compound binding to unphosphorylated-BTK kinase domain (UP-BTK), by competing with a fluorescent labeled tracer. […] Data were analyzed using Xlfit™ version 5.3 from ID Business Solutions (Guildford), Microsoft Excel add-in. pIC50 refers to the negative log of the IC50 in molar.

[1] = negative log of the IC50 in molar, 60 minutes incubation, 50 nM Tracer 236
[2] = negative log of the IC50 in molar, 60 minutes incubation with 50 nM Tracer 236
[3] = unphosphorylated-BTK kinase domain, 60 minutes incubation, pIC50 = negative log of the IC50 in molar

Sequence of unphosphorylated-BTK kinase domain (UP-BTK), GST-tagged human BTK (389-659aa) (Q06187 389-659): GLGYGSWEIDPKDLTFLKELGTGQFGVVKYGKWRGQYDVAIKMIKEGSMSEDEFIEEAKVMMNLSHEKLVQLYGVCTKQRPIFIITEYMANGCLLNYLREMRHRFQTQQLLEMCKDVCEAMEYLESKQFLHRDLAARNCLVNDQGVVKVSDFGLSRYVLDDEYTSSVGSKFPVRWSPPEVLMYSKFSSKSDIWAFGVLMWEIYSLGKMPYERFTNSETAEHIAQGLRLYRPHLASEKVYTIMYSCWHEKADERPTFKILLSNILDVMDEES

SMILES: CNC/C=C/C(=O)N1CCC[C@@H](NC(=O)c2sc3nccc4c3c2NC(=O)N4c2ccc(Oc3ccccc3)cc2C)C1 (single isomer, unassigned) [Example 23, (R,E)-5-(*S)-(2-Methyl-4-phenoxyphenyl)-N-(1-(4-(methylamino)but-2-enoyl)piperidin-3-yl)-4-oxo-4,5-dihydro-3H-1-thia-3,5,8-triazaacenaphthylene-2-carboxamide]
BTK_I_binding pIC50 [1]: 7.5

SMILES: C=CC(=O)N1CC[C@@H](NC(=O)c2sc3nccc4c3c2NC(=O)N4c2ccc(Oc3ccccc3)nc2C)C1 (single isomer, unassigned) [Example 716, (R)—N-(1-Acryloylpyrrolidin-3-yl)-5-(*S)-(2-methyl-6-phenoxypyridin-3-yl)-4-oxo-4,5-dihydro-3H-1-thia-3,5,8-triazaacenaphthylene-2-carboxamide]
BTK_I_binding pIC50 [2]: 8.0

SMILES: CCOC(C)(C)/C=C(\C#N)C(=O)N1CCC[C@@H](NC(=O)c2sc3nccc4c3c2NC(=O)N4c2ccc(Oc3ccccc3)cc2C)C1 (single isomer, unassigned) [Example 478, (R,*E)-N-(1-(2-Cyano-4-ethoxy-4-methylpent-2-enoyl)piperidin-3-yl)-5-(*S)-(2-methyl-4-phenoxyphenyl)-4-oxo-4,5-dihydro-3H-1-thia-3,5,8-triazaacenaphthylene-2-carboxamide]
BTK_I_binding pIC50 [3]: 7.8

SMILES: C=CC(=O)N1CCC[C@@H](NC(=O)c2sc3nccc4c3c2NC(=O)N4c2cnc(OCC(C)C)cc2C)C1 (single isomer, unassigned) [Example 767, (R)—N-(1-Acryloylpiperidin-3-yl)-5-(*R)-(6-isobutoxy-4-methylpyridin-3-yl)-4-oxo-4,5-dihydro-3H-1-thia-3,5,8-triazaacenaphthylene-2-carboxamide]
BTK_I_binding pIC50 [2]: <6

SMILES: Cc1cc(OC(C)C)ncc1N1C(=O)Nc2c(C(=O)N[C@@H]3CCNC3)sc3nccc1c23 (single isomer, unassigned) [Example 958, (R)-5-(*S)-(6-Isopropoxy-4-methylpyridin-3-yl)-4-oxo-N-(pyrrolidin-3-yl)-4,5-dihydro-3H-1-thia-3,5,8-triazaacenaphthylene-2-carboxamide]
BTK_I_binding pIC50 (unphosphorylated-BTK kinase domain, Lanthascreen, 60 minutes incubation, pIC50 = negative log of IC50 in molar): <6

SMILES: C=CC(=O)N1C[C@H](NC(=O)c2sc3nccc4c3c2NC(=O)N4c2ccc(Oc3ccccc3)cc2C)C[C@@H](OC)C1 (relative stereo) [Example 481, N-((3R,5R)-1-Acryloyl-5-methoxypiperidin-3-yl)-5-(*S)-(2-methyl-4-phenoxyphenyl)-4-oxo-4,5-dihydro-3H-1-thia-3,5,8-triazaacenaphthylene-2-carboxamide]
BTK_I_binding pIC50 [3]: 8.2

SMILES: Cc1cc(Oc2ccccc2)ccc1N1C(=O)Nc2c(C(=O)N[C@H]3CCCN(C)C3)sc3nccc1c23 (single isomer, unassigned) [Example 249, (S)-5-(*S)-(2-Methyl-4-phenoxyphenyl)-N-(1-methylpiperidin-3-yl)-4-oxo-4,5-dihydro-3H-1-thia-3,5,8-triazaacenaphthylene-2-carboxamide]
BTK_I_binding pIC50 [1]: 6.6

SMILES: Cc1cc(Oc2ccccc2)ccc1N1C(=O)Nc2c(C(=O)N[C@H]3CCCN(C)C3)sc3nccc1c23 (single isomer, unassigned) [Example 339, (S)-5-(*R)-(2-Methyl-4-phenoxyphenyl)-N-(1-methylpiperidin-3-yl)-4-oxo-4,5-dihydro-3H-1-thia-3,5,8-triazaacenaphthylene-2-carboxamide]
BTK_I_binding pIC50 [3]: 5.4

Next, values leading:

BTK_I_binding pIC50 [2]: 7.2
SMILES: C=CC(=O)N1CCC[C@@H](NC(=O)c2sc3nccc4c3c2NC(=O)N4c2ccc(OC3CCOCC3)cc2C)C1 (single isomer, unassigned) [Example 675, (R)—N-(1-Acryloylpiperidin-3-yl)-5-(*R)-(2-methyl-4-((tetrahydro-2H-pyran-4-yl)oxy)phenyl)-4-oxo-4,5-dihydro-3H-1-thia-3,5,8-triazaacenaphthylene-2-carboxamide]

BTK_I_binding pIC50 [1]: 7.4
SMILES: N#C/C(=C\C1CC1)C(=O)N1CCC[C@@H](NC(=O)c2sc3nccc4c3c2NC(=O)N4c2c(Cl)ccc3c2OCO3)C1 (single isomer, unassigned) [Example 239]

BTK_I_binding pIC50 [3]: 6.2
SMILES: C=CC(=O)N1CCC[C@H](NC(=O)c2sc3nccc4c3c2NC(=O)N4c2ccc(Oc3ccccc3)cc2C)C1 (single isomer, unassigned) [Example 289, (S)—N-(1-Acryloylpiperidin-3-yl)-5-(*R)-(2-methyl-4-phenoxyphenyl)-4-oxo-4,5-dihydro-3H-1-thia-3,5,8-triazaacenaphthylene-2-carboxamide]

BTK_I_binding pIC50 [1]: 7.6
SMILES: Cc1cc(Oc2ccccc2)ccc1N1C(=O)Nc2c(C(=O)N[C@H]3CCCOC3)sc3nccc1c23 (single isomer, unassigned) [Example 88, (S)-5-(*S)-(2-Methyl-4-phenoxyphenyl)-4-oxo-N-(tetrahydro-2H-pyran-3-yl)-4,5-dihydro-3H-1-thia-3,5,8-triazaacenaphthylene-2-carboxamide]

BTK_I_binding pIC50 [3]: 5.8
SMILES: CN1CCC[C@@H](NC(=O)c2sc3nccc4c3c2NC(=O)N4c2c(Cl)ccc3c2OCO3)C1 (single isomer, unassigned) [Example 353, (R)-5-(*R)-(5-Chlorobenzo[d][1,3]dioxol-4-yl)-N-(1-methylpiperidin-3-yl)-4-oxo-4,5-dihydro-3H-1-thia-3,5,8-triazaacenaphthylene-2-carboxamide]

BTK_I_binding pIC50 [1]: 8.1
SMILES: C=CC(=O)N1CCC[C@@H](NC(=O)c2sc3nccc4c3c2NC(=O)N4c2ccc(Oc3ccccc3)cc2C)C1 (single isomer, unassigned) [Example 9, (R)—N-(1-Acryloylpiperidin-3-yl)-5-(*S)-(2-methyl-4-phenoxyphenyl)-4-oxo-4,5-dihydro-3H-1-thia-3,5,8-triazaacenaphthylene-2-carboxamide]

BTK_I_binding pIC50 [1]: 7.4
SMILES: C=CC(=O)N1CCC[C@H](NC(=O)c2sc3nccc4c3c2NC(=O)N4c2ccc(Oc3ccccc3)cc2C)C1 (single isomer, unassigned) [Example 44, (S)—N-(1-Acryloylpiperidin-3-yl)-5-(*S)-(2-methyl-4-phenoxyphenyl)-4-oxo-4,5-dihydro-3H-1-thia-3,5,8-triazaacenaphthylene-2-carboxamide]

BTK_I_binding pIC50 [1]: 7.4
SMILES: Cc1cc(Oc2ccccc2)ccc1N1C(=O)Nc2c(C(=O)N[C@@H]3CCCN(C(=O)CN(C)C)C3)sc3nccc1c23 (single isomer, unassigned) [Example 56, (R)—N-(1-(2-(Dimethylamino)acetyl)piperidin-3-yl)-5-(*S)-(2-methyl-4-phenoxyphenyl)-4-oxo-4,5-dihydro-3H-1-thia-3,5,8-triazaacenaphthylene-2-carboxamide]

BTK_I_binding pIC50 [3]: 7.1
SMILES: C=CC(=O)N1CCC[C@@H](NC(=O)c2sc3nccc4c3c2NC(=O)N4c2c(Cl)ccc3c2OCO3)C1 (single isomer, unassigned) [Example 321, (R)—N-(1-Acryloylpiperidin-3-yl)-5-(*R)-(5-chlorobenzo[d][1,3]dioxol-4-yl)-4-oxo-4,5-dihydro-3H-1-thia-3,5,8-triazaacenaphthylene-2-carboxamide]
